The values that follow come from PMC9147645, “Food-Derived β-Carboline Alkaloids Ameliorate Lipid Droplet Accumulation in Human Hepatocytes” (Pharmaceuticals, 2022).

The subject of series [1] is HepG2 cells. Kind of series: Cytotoxicity / lipocytotoxicity assay (CCK-8). Type of series: cell-based. To be noted: HepG2. The procedure: HepG2 cells were purchased from the American Type Culture Collection (ATCC) (Manassas, VA, USA). High-glucose DMEM containing 10% heat-inactivated FBS and 1% penicillin–streptomycin was maintained under a humidified atmosphere at 37 °C with 5% CO2, as indicated in the Supplementary Materials. HepG2 cells (1.5 × 10^4/well) in DMEM supplemented with 10% FBS were seeded into a 96-well plate. A cytotoxicity assay was performed according to the manufacturer’s protocol using CCK-8 (Dojindo Molecular Technologies), as indicated in the Supplementary Materials (Materials and Methods). […]
2 1.2. Cytotoxicity assay […] HepG2 cells (1.5 × 10^4/well) in DMEM supplemented with 10% FBS were under reduced pressure, and H2O (25 ml) was added. Then the solution was seeded into a 96-well plate. The cytotoxicity assay was done using CCK-8 extracted with AcOEt after adjusted to 9–10 with aq. NaOH solution. The organic (Dojindo Molecular Technologies) according to the manufacturer's protocol. […]
Compounds 1 and 3. To a stirred soln. Compound 10 (218 mg, 1.00 mmol), 5- Technologies, Rockville, USA) according to the manufacturer ’sinstructions. Cell Acetoxymethylfurfural (1, 168 mg, 1.00 mmol) and Nano CuO (7.955 mg, 0.1 suspension (100 μl/well) was inoculated in a 96-well plate (Iwaki, Japan), and mmol) were added 6 ml of DMF. The mixture was stirred at 90℃ for 16 h. The pH once monolayers were observed, treatments were added (n = 3 per each of the aqueous solution was adjusted to 9–10 with aq NaOH solution after adding treatment). Cells were then pre-incubated with the treatments for 24 h before H O. After extracting the solution with AcOEt, the organic layer was washed with assay to determine cell viability.Absorbance was measured at 450 nm using a 2 plate reader (PerkinElmer-ARVO-MX-ID 10533234, Japan). […]
[5-(hydroxymethyl)-2-furanyl]-1H-pyrido[3,4-b]indole-3-carboxylic acid (2, CAS culture medium was removed from each dish, and cells were washed Registry Number 896466-77-6); flazine methyl ester acetate (3, CAS Registry and rinsed with 1× PBS. Cells were then fixed for 20 min in 10% formalin and Number 104537-95-3); flazin (4, CAS Registry Number 100041-05-2); washed twice using PBS. Then, Oil Red O dye was added to the dishes and incubated for 20 min. Finally, the dye was removed from each dish and cells 5

In series [2] the test system is HepG2 cells. Kind of series: Lipid droplet accumulation inhibition (LDAI) assay, Oil Red O, oleic acid-loaded cells. The class given is cell-based, human. The settings on record: HepG2 + 0.25 mM oleic acid, vs untreated control (+OA). The procedure: LDAI assay: LDAI activity was determined using an Oil Red O assay with 24-well plates (n = 4 per treatment). Staining of LDs in cultured hepatocytes was performed according to the manufacturer’s instructions, based on the Oil Red O staining assay. Briefly, HepG2 cells (1.5 × 10^4/well) were supplemented with 10% FBS, cultured, seeded in 35-mm dishes, and treated with the tested samples after 24 h. Oil Red O, a fat-soluble dye, is widely used for staining neutral lipids in LDs, as described in the Supplementary Materials. […]
2 1.2. Cytotoxicity assay dropwise under ice-cooling. […]
Lipid droplet accumulation inhibition assay and Real-Ti me LDAI acid tryptophan (9) and compound 12 were subjected to acid conversion at 90 °C accumulation in acetic acid to obtain compound 2 (1H and 13C, see in Supporting Information). Lipid droplet accumulation inhibition (LDAI) activity was determined using an Synthesis of Compound 4. To a stirred soln . compound 3 in MeOH was added oilred assay in a 24-well plate according to the manufacturer ’sinstructions (n = 4 with NaOH (2 mol/L). Compound 4 was obtained after stirringthe mixture at 65℃ per each treatment). Real-time oleic induced-LD inhibition was performed by for 5 h. (1H and 13C, see Figures S10 and S11). We also prepared similar using a Nikkon microscope. Morphological analysis of HepG2 cells after compounds without any substituent at the C-1 position in the C-ring using a one- treatment with control(-OA) and (+OA) or compound at different concentrations pot Pictet–Spengler reaction (6-8). was determined by staining with AO/EB.
Synthetic b-carboline alkaloids (1-8): 1.4. Oil Red O Staining.
CAS Registry Number of all the series of synthetic b-carboline alkaloids (1-8) HepG2 cells were cultured and treated in 35 mm dishes, as described above. were subjected to biological evaluation: 1H-Pyrido[3,4-b]indole-3-carboxylic acid, Oil Red O dye was used for LD staining. Oil Red O was dissolved in isopropanol 1-[5-[(acetyloxy)methyl]-2-furanyl]-2,3,4,9-tetrahydro-, methyl ester, (1S-trans)- as 3 mg/mL and diluted with water so that isopropanol became 60%. Oil Red O (9CI) (1,CAS Registry Number 11 5 1 0 7-75-0;11 5 1 0 7-76-1);2,3,4,9-Tetrahydro-1-solutionwasfilteredbya0.4 μm pore syringe filter.For cellular staining, the […]

In series [3] the test system is HepG2 cells. Kind of series: Real-time LDAI monitoring (live imaging). Type of series: cell-based, human. The settings on record: HepG2 in DMEM with oleic acid, within 20 h. The procedure:
Real-time LDAI monitoring: Morphological changes in HepG2 cells and LDs induced by treatment with 4 were monitored using a Nikon, Hamamatsu Photonics/Ti-E, CCD Camera for 20 h. The cell viability of the control cells was examined by staining with acridine orange (AO)/ethidium bromide (EB) dyes at the end of the experiment (20 h) (Supplementary Materials, Figure S12).

Series [4] concerns cultured human hepatocytes (C3A). More on the design: method as in earlier work. The settings on record: ref "We have reported"; cited from earlier work.
Series [5] relates to nuclear factor erythroid 2-related factor 2 (Nrf2). The settings on record: hepatocytes; ref "We have reported"; cited from earlier work.

Take `O=C(O)c1cc2c([nH]c3ccccc32)c(-c2ccc(CO)o2)n1` [Compound 4, flazin]: the “Cytotoxicity (in words)” value with HepG2 cells [1] is given as “no cytotoxicity”. Besides, the LDAI result in the series on HepG2 cells [2] (100 μM, 24 h) is given as “ns”. For the same molecule, in the series on HepG2 cells [2] (Homo sapiens, HepG2, 24 h), the inhibition at 200 µM was found to be 20% and the inhibition at 400 µM was 77.5%. Further, in the series with HepG2 cells [3], the “Accumulated neutral LDs in real-time imaging” value is listed as “significantly reduced in number”. Also, in series [4], the Cytotoxicity result is “without showing any significant cytotoxicity” and the “Protection from oxidative damage by AAPH” value is “protects”. Besides, the Nrf2 activation entry in series [5] was “activated”.

Take `O=C(O)C1Cc2c([nH]c3ccccc23)C(c2ccc(CO)o2)N1` (stereo not drawn) [Compound 2, 1,2,3,4-tetrahydro-1-(5-(hydroxymethyl)-2-furanyl)-9H-pyrido [3,4-b]indole-3-carboxylic acid]: the “Cytotoxicity (in words)” value in the series with HepG2 cells [1] was “no cytotoxicity”. In addition, the inhibition at 100 µM in the series on HepG2 cells [2] (Homo sapiens, HepG2, 24 h, 100 μM) amounted to 25.5%. In the series with HepG2 cells [2] (Homo sapiens, HepG2, 24 h), the inhibition at 200 µM was determined as 29.1% and the inhibition at 400 µM was 74%.

What is called inhibition is the percentage by which the read-out fell short of the control.
